For one series, the system named is Sprague-Dawley rats. The series is described as follows: Pulmonary (intratracheal) administration to Sprague-Dawley rats, whole blood glucose. The class given is in vivo. How it is done:
FIG. 6. Glucose response of Sprague-Dawley rats to […] of phosphorylated insulin hexamer. Rats were injected at Oh and glucose levels measured for 12 h. As shown, glucose levels dropped by 2 h post-dosing and remained suppressed out to 11 h post-dose, after which they returned to baseline or pre-dose levels.
Via the pulmonary route, six Sprague-Dawley rats (BW 250-360 g.) were administered 4 mg of phosphorylated insulin oligomer (in the form of hexamer). The animals were dosed by intratracheal administration using a PennCentury intratracheal Aerosolizer (Microsprayer). The dose volume was 100 μL/animal. The dose concentration for the study was prepared by dilution of 30 mg/mL phosphorylated insulin hexamer in isotonic phosphate buffered normal saline, pH 7.4.
An Antisedan cocktail consisting of atipamezole hydrochloride (1 mg/mL, 1 mg/kg) and saline was administered by subcutaneous injection at a dose volume of 1 mL/kg, following completion of the dosing process. A series of 13 blood samples (approximately 0.1 mL/sample) were collected from each animal at 1, 2, 3, 4, 5, 6, 7, 8, 9, 10, 11 and 12 hours post-dose. For this purpose, each rat (unanesthetized) was bled by jugular/tail vein venipuncture (or other site as deemed necessary) and the sample used for measuring whole blood glucose levels using the Accu Soft Advantage™ (glucometer) method. […]

For series [1] the following is noted: phase 3 clinical trials; cited from earlier work.
Series [2] deals with pancreatectomized diabetic beagle dogs. The settings on record: dog, in vivo, iv.
For the next series, the system named is L6 rat myocytes. The series is described as follows: 2-deoxyglucose uptake in L6 rat myocyte cell cultures. Conditions: 60 min incubation. The format is cell-based. How it is done: FIG. 5. Dose response curve of human & porcine & P-insulin oligomers in L6 rat myocytes. Cells were incubated for 60 min. in the various concentrations of each insulin in separate experiments. 2-deoxyglucose uptake was then measured.
P-insulin oligomers of sequence ID NO. 1 were tested in L6 rat myocyte cell cultures for their ability to cause glucose uptake.

The next series relates to diabetic beagle dogs. The series is described as follows: Subcutaneous injection into diabetic dogs, glucose suppression. The format is in vivo. The settings on record: compared with unmodified insulin. As to the method: FIG. 4. Subcutaneous injection of human insulin and P-insulin oligomers into diabetic beagle dogs.
The formulation of example 3 containing P-insulin oligomers of sequence ID NO.2 and with 3:1 M:M protamine/insulin or unmodified insulin were injected subcutaneously into diabetic dogs.

Series [3] has as its system pancreatectomized diabetic beagle dogs. Nature of the series: Intravenous injection into pancreatectomized diabetic dogs, blood glucose.
The conditions of series [4]: U.S. Pat. No. 5,453,417 & PCT/CA92/00082; cited from earlier work.
[5] abbreviates: IV injection, pancreatectomized diabetic dogs.

Where two headings read alike, the source gives them in different places.

In the case of “phosphorylated insulin hexamer: phosphorylated insulin oligomer in the form of hexamer, in isotonic phosphate buffered normal saline, pH 7.4”, the “time at which glucose returned to pre-dose levels” value in the series on Sprague-Dawley rats (4 mg) is reported as no more than 12 h. Besides, the “time for which blood glucose remained below baseline post-dosing” value in the series with Sprague-Dawley rats (4 mg (FIG. 6 legend says 40 mg)) is listed as 11 h.

Turning to Lantus, the “fasting blood glucose (FBG) achieved” value in series [1] is recorded as 145 mg %.

Take “P-insulin oligomers: phosphorylated insulin oligomers comprising sequence ID NOs. 1 and 2; FIG. 3 and 5 use ID NO. 1, FIG. 4 uses ID NO. 2”: in series [2], the “dose at which hypoglycemia was observed” value is on record as 8 times the basal or "glucose ma and the “serum half-life / duration of action (in words)” value is given as “extended duration of action (long serum half-life)”. In the series with L6 rat myocytes (entire dose range), the “dose response of 2-deoxyglucose uptake” value is reported as “flattened dose response at all concentrations investigated”. Also, the “maximal stimulation of deoxy-glucose uptake” value in the series on L6 rat myocytes (relative to human (and porcine) insulin) is “markedly lower than that for porcine or human insulin”. Further, the “glucose suppression / duration of action” value with diabetic beagle dogs is given as “extended duration of action”. Further, the “course of blood glucose after injection” value in series [3] (setting [5]) is “maintenance of normal glucose without hyperglycemia at all doses”.

For Detemir, the “fasting blood glucose (FBG) achieved” value in series [1] is listed as 145 mg %.

Regarding “monomeric phosphorylated insulin: monomeric phosphorylated insulin of the Lougheed patents U.S. Pat. No. 5,453,417 & PCT/CA92/00082”, the “flattening of insulin's dose response” value in series [4] was 3-4 fold.

For human insulin, the “serum half-life / duration of action (in words)” value in series [3] (IV injection, pancreatectomized diabetic beagle dogs) is reported as “short serum half-life”. In addition, in series [3] (setting [5]), the “course of blood glucose after injection” value is recorded as “rapid decline in blood glucose” and the hypoglycemia result was “pronounced hypoglycemia”. Moreover, the duration of action in series [3] (given IV, pancreatectomized diabetic dogs) worked out at 20 min.

The values are drawn from patent publication US20090099064A1, “Derivatized insulin oligomers” (Diabecore Medical Inc.,, priority 2006, published 2009).
